Tested on: areas of endothelial damage, vulnerable plaque or angiogenesis in the heart
Assay: Simultaneous imaging of In-111 labeled vitronectin antagonist compound and Tc99m cardiac perfusion agent (Example 67)
Assay type: in vivo
Conditions: human, 10–40 mCi, approximately 0.5 to 6 hours following injection
Description: The compound of Examples 54, 55 or 56 is administered to a human at a level of ˜1–10 mCi of ^111In before, together with, or after the adminstration of a ^99mTc cardiac perfusion imaging agent (e.g. 10–40 mCi of ^99mTc-Sestamibi). […] The simultaneous imaging of the In-111 labeled vitronectin antagonist compound and the Tc99m cardiac perfusion agent is carried out by a method such as that reported by White (White, S A, Mueller, D H, Smith H E, et al. J Nucl Med Tech 1984, 12: 124–125) or Hillel (Hillel P G, Tindale W B, Taylor C J, et al. Nucl Med Conmun 1998, 19, 761–769).

[C-]#[N+]CC(C)(C)OC.[C-]#[N+]CC(C)(C)OC.[C-]#[N+]CC(C)(C)OC.[C-]#[N+]CC(C)(C)OC.[C-]#[N+]CC(C)(C)OC.[C-]#[N+]CC(C)(C)OC.[Tc] [^99mTc-Sestamibi, hexakis methoxyisobutyl isonitrile Technetium(I)]
distribution of the ^99mTc perfusion agent: distributed in the myocardium in relation to regional myocardial blood flow

Source: patent US7179446B2, “Simultaneous imaging of cardiac perfusion and a vitronectin receptor targeted imaging agent” (Bristol-Myers Squibb Pharma Company, priority 2000, dated 2007)
